From article PMC6009855, “Design and synthesis of naphthalimide group-bearing thioglycosides as novel β-N-acetylhexosaminidases inhibitors” (Journal of Enzyme Inhibition and Medicinal Chemistry, 2018)
pIC50, pKi: −log10 of the molar value. Where two headings read alike, the source gives them in different places. Each block holds one compound with its values, some of them ahead of it.

Assays:
hsHexB [1] = target: T1, hsHexB (Homo sapiens, UniProt P07686); test: Inhibitory potency assay, end-point, 4-MU-GlcNAc substrate, pH 4.0; assay type: biochemical; settings: for Inhibition potency against hsHexB (in words): each compound at 20 µM, Figure 3; for pKi: 4-MU-GlcNAc, pH 4.0, 30 °C, 30 min, read-out: Ki against hsHexB
T1 construct: His6; made in house; host or cells: Pichia pastoris GS115 (pPIC9 vector)
T1 sequence (P07686 122-556): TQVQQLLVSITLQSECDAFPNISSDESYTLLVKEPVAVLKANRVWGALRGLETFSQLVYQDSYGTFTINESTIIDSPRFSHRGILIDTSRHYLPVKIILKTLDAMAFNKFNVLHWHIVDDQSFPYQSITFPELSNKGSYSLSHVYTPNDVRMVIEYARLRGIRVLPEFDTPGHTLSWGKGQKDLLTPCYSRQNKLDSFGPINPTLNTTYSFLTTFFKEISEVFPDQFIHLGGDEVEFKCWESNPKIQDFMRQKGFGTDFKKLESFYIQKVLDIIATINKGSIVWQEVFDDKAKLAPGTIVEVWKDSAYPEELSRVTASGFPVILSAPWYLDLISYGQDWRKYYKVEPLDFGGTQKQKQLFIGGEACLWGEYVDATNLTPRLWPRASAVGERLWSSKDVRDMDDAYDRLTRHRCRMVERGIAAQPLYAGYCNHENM
Description: (§1) Gene encoding hsHexB, which was engineered to contain a His6-tagged fusion protein, was cloned into pPIC9 expression vector (Invitrogen, Carlsbad, CA, USA), and subsequently transformed into Pichia pastoris GS115 (Invitrogen, Carlsbad, CA, USA) by electroporation. The cells were first cultured in BMGY broth (1% yeast extract, 1% glycerol, 2% peptone, 0.2% biotin, 1.34% yeast nitrogen, 0.1 M potassium phosphate, pH 6.0) at 30 °C. Methanol was added into the culture daily at a final concentration of 1% (v/v). When OD600 value reached 2.0 (after ∼120 h), the cells were harvested by centrifugation at 6000g for 10 min. While the pellet was resuspended in BMMY broth (1% yeast extract, 1% methanol, 2% peptone, 0.2% biotin, 1.34% yeast nitrogen, 0.1 M potassium phosphate, pH 6.0), the supernatant was subjected to ammonium sulfate precipitation (75% saturation) at 4 °C, in which the precipitate was further resuspended in distilled water and then desalted in buffer A (20 mM sodium phosphate, 0.5 M sodium chloride, pH 7.4). Subsequently, the resuspension solution was centrifuged at 17,000g for 30 min at 4 °C and passed through a 0.2-µm filter prior to loading onto a 5-ml HisTrap FF affinity column (GE Healthcare, Chicago, IL, USA), which was pre-equilibrated with buffer A. To remove nonspecific binding proteins, the column was sequentially washed with buffer A-containing 20 mM imidazole and buffer A-containing 50 mM imidazole. Finally, the target protein was eluted with buffer B (20 mM sodium phosphate, 0.5 M sodium chloride, 150 mM imidazole, pH 7.4). Purity of the protein was further analyzed by SDS–PAGE. hOGA was overexpressed in Escherichia coli BL21(DE3) and purified as described previously.
(§2) Potencies of hsHexB and hOGA were assayed by end-point experiment, in which 4-methylumbelliferyl N-acetyl-β-D-glucosaminide (4-MU-GlcNAc; Sigma, St. Louis, MO, USA) was used as a substrate. Various concentrations of inhibitors and substrates (50 µM, 25 µM, and 12.5 µM) were mixed with Britton-Robinson buffer (hsHexB, pH 4.0; hOGA, pH 6.0), dimethylsulfoxide at a final concentration of 2%, enzyme, and 40 µM 4-MU-GlcNAc in a reaction of 100-µl final volume, and incubated at 30 °C for 30 min. Then, the enzymatic reaction was terminated by the addition of 100 µl of 0.5 M sodium carbonate solution. The fluorescence of the released 4-methylumbelliferone was quantified (excitation at 366 nm, emission at 445 nm) on a Varioskan Flash microplate reader (Thermo Fisher Scientific, Waltham, MA, USA). To determine the inhibition constant (Ki), the reciprocal plots of 1/velocity versus inhibitor were constructed. Data analysis was performed using Graph Pad Prism software (Graph Pad Software Inc., San Diego, CA, USA).

hsHexA = test system: hsHexA; parameters: method as in PMID 17317569; settings: read-out: IC50 against hsHexA; cited from earlier work
[2] = test system: GH20 and GH84 β-N-acetylhexosaminidases; parameters: method as in PMID 22280348, PMID 23688083; settings: cited from earlier work
hsHexB [3] = target: T1, hsHexB; parameters: method as in PMID 20187655; settings: cited from earlier work
hsHex = target: hsHex; parameters: method as in PMID 24900704; settings: read-out: Ki against hsHex; cited from earlier work
hOGA = target: T2, hOGA (Homo sapiens, UniProt O60502); test: Inhibitory potency assay, end-point, 4-MU-GlcNAc substrate, pH 6.0; assay type: biochemical; settings: for pKi: 4-MU-GlcNAc, pH 6.0, 30 °C, 30 min, read-out: Ki against hOGA; for Inhibition potency against hOGA (in words): each compound at 20 µM, Figure 3
T2 construct: made in house; host or cells: Escherichia coli BL21(DE3)
T2 sequence (O60502 1-916): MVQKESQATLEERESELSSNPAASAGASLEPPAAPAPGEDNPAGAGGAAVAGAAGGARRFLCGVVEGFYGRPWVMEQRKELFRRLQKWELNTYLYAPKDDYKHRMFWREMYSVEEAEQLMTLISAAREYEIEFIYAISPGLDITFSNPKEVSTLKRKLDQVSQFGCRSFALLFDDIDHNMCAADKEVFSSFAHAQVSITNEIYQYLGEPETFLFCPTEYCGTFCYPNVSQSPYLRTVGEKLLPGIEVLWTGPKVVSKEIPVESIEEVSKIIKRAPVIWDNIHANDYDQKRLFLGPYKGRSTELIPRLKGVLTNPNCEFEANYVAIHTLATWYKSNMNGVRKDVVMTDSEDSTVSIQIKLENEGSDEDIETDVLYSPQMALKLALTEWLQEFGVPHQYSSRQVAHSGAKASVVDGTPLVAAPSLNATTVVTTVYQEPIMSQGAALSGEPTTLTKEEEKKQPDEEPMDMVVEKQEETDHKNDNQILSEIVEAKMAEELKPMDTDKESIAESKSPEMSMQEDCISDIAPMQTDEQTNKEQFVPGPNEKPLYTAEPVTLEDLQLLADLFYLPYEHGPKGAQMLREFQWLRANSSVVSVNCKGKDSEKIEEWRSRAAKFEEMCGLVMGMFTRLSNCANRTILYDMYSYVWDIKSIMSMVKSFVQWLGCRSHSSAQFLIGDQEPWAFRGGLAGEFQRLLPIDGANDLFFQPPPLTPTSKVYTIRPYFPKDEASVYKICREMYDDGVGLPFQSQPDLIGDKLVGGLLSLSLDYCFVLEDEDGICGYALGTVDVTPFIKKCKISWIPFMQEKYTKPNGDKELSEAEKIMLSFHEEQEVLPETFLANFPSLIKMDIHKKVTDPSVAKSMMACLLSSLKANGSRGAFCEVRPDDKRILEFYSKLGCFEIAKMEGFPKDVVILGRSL
Description: as §1, §2

[4] = target: GH20 insect β-N-acetylhexosaminidase OfHex1; parameters: method as in PMID 25155420; settings: read-out: Ki against OfHex1; cited from earlier work

Compound: 2-[2-[2-[(2-acetamido-β-D-glucopyranosyl)thio]ethylamino]ethyl]-1H-benzo[de] isoquinoline-1,3(2H)-dione [compound 15a]
Inhibition potency against hsHexB (in words) (hsHexB [1]): highest potencies

Compound: O=C1c2cccc3cccc(c23)C(=O)N1CCNCCN1C(=O)c2cccc3cccc(c23)C1=O [M-31850]
pIC50 (hsHexA): 5.22

Compound: CC1=N[C@@H]2[C@@H](O)[C@H](O)[C@@H](CO)O[C@@H]2S1 [NAG-thiazoline]
Selectivity between GH20 and GH84 β-N-acetylhexosaminidases [2]: non-selectivity

Compound: CC(=O)N[C@H]1c2nc(CC(=O)O)cn2[C@H](CO)[C@H](O)[C@@H]1O [Nagstatin]
Selectivity between GH20 and GH84 β-N-acetylhexosaminidases [2]: non-selectivity

Compound: CC(=O)N[C@H]1/C(=N/OC(=O)Nc2ccccc2)O[C@H](CO)[C@@H](O)[C@@H]1O [PUGNAc]
Selectivity between GH20 and GH84 β-N-acetylhexosaminidases [2]: non-selectivity

Compound: COc1ccc(CN(CCCCCCCN2C[C@H](NC(C)=O)[C@@H](O)[C@H](O)[C@H]2CO)Cc2ccc(OC)cc2)cc1 [compound 4 (5)]
Selectivity for hsHexB toward GH84 hOGA (hsHexB [3]): 250,000 fold
pKi (hsHexB [3]; read-out: Ki against hsHexB): 9.16

Compound: COc1ccc(CNCCN2C(=O)c3cccc4cccc(c34)C2=O)cc1 [compound 7a (7)]
pKi (hsHex): 6.20

Type of inhibition of hOGA (hOGA; Dixon plots, Figure 4B): competitive inhibitors
pKi (hOGA; Dixon plots): 5.42
Inhibition potency against hOGA (in words) (hOGA): highest potency
pKi (hsHexB [1]; Dixon plots): 4.52
melting point: 218 to 220 °C
Compound: CC(=O)N[C@@H]1[C@@H](O)[C@H](O)[C@@H](CO)O[C@H]1SCCNCCCN1C(=O)c2cccc3cccc(c23)C1=O [compound 15b]

Inhibition potency against hsHexB (in words) (hsHexB [1]): highest potencies
melting point: 230 to 232 °C
Compound: CC(=O)N[C@@H]1[C@@H](O)[C@H](O)[C@@H](CO)O[C@H]1SCCCNCCN1C(=O)c2cccc3cccc(c23)C1=O [compound 15d]

Inhibition potency against hsHexB (in words) (hsHexB [1]): highest potencies
Compound: CC(=O)N[C@@H]1[C@@H](O)[C@H](O)[C@@H](CO)O[C@H]1SCCCCCNCCN1C(=O)c2cccc3cccc(c23)C1=O [compound 15g]

pKi (hOGA; Dixon plots): < 4.00
Type of inhibition of hsHexB (hsHexB [1]; Dixon plots, Figure 4A): competitive inhibitors
pKi (hsHexB [1]; Dixon plots): 6.04
Inhibition potency against hsHexB (in words) (hsHexB [1]): highest potencies
Compound: CC(=O)N[C@@H]1[C@@H](O)[C@H](O)[C@@H](CO)O[C@H]1SCCCCCCNCCN1C(=O)c2cccc3cccc(c23)C1=O [compound 15j]

Inhibition potency against hsHexB (in words) (hsHexB [1]): considerably decreased
Compound: CC(=O)N[C@@H]1[C@@H](O)[C@H](O)[C@@H](CO)O[C@H]1SCCCCCCNCCCN1C(=O)c2cccc3cccc(c23)C1=O [compound 15k]

Inhibition potency against hsHexB (in words) (hsHexB [1]): considerably decreased
Compound: CC(=O)N[C@@H]1[C@@H](O)[C@H](O)[C@@H](CO)O[C@H]1SCCCCCCNCCCCN1C(=O)c2cccc3cccc(c23)C1=O [compound 15l]

Inhibition potency against hOGA (in words) (hOGA): hardly showed activity
Inhibition potency against hsHexB (in words) (hsHexB [1]): hardly showed activity
melting point: 236 to 238 °C
Compound: CC(=O)N[C@@H]1[C@@H](O)[C@H](O)[C@@H](CO)O[C@H]1SCCCCS[C@@H]1O[C@H](CO)[C@@H](O)[C@H](O)[C@H]1NC(C)=O [compound 17, 1,4-bis[(2-acetamido-2-deoxy-β-D-glucopyranosyl)thio] butane]

Compound: Cc1nnc(CNCCN2C(=O)c3cccc4cccc(c34)C2=O)s1 [compound Q1]
pKi [4]: 5.37
